Reference: patent US20260199284A1, “SPECIFIC VASH COMPOUNDS (SVC) INHIBITORS FOR HEART DISEASES” (MT ACT, priority 2023, published 2026)

Experiments:
[1] = tested on: mitochondrial activity; test: Seahorse Cell Mito Stress Test; type: cell-based; settings: 20 μM
Description: FIG. 10: Mitochondrial activity assays using the Agilent Seahorse Cell Mito Stress Test kit in absence or presence of SVC_01 [20 μM]. This assay is the widely recognized, well-accepted standard assay for assessing energetic mitochondrial function. Multiple parameters are obtained in this one assay including, basal respiration, ATP-linked respiration, maximal and reserve capacities, and non-mitochondrial respiration. The assay provides insights into the mechanism of mitochondrial dysfunction and allow users to investigate functional differences among cell types, drug candidates, and genetic or biochemical interventions.
Next, we performed safety pharmacology experiments and head-to-head compared the cellular toxicity of SVCs on human cells. For our comparison we used microtubule binding agents including Parthenolide that previously was coined as an inhibitor of detyrosination (Fonrose et al., 2007). This compound was latter shown to disrupt microtubules by non-specific binding to tubulin in the molecular structure (Hotta T. et al., 2021). […] Mitochondrial health was assayed using the Seahorse equipment XF. […] No mitochondrial defects were measured at 20 micromolar concentration of our VASH inhibitor (FIG. 10). […]

[2] = tested on: ZSF1 obese rats; test: Echocardiography and invasive hemodynamics in HFpEF rats; type: in vivo, rat
Source text: FIG. 21: VASHi acutely improves diastolic function in HFpEF rats. A) Echocardiographic assessments of left ventricular diastolic function in ZSF1 Lean and Obese animals+/−SVC_02 treatment. Improved E/A ratio (marker of the function of the left ventricle of the heart) and mitral valve deceleration time indicate improved diastolic function and faster ventricular relaxation upon VASH inhibition in ZSF1 obese rats. B) Hemodynamic measurements of left ventricular diastolic function in ZSF1 Lean and Obese animals+/−SVC_02 treatment. Improved tau (left ventricular diastolic time constant) and dP/dTmin (rate of ventricular relaxation) indicate more rapid ventricular relaxation upon VASH inhibition in ZSF1 obese rats.
Echocardiography measurements were acquired Vevo2100 Ultrasound System (VisualSonics Inc., Toronto, Ontario, Canada) with a MS250 (13-24 MHz) transducer. Animals were sedated with inhaled isoflurane (2-3%). Parasternal long axis, parasternal short axis, apical four chamber, and apical two chamber views were acquired to assess cardiac structure and function. Diastology was assessed using pulse wave and tissue doppler imaging. The protocol used was based on recommendations from the European Society of Cardiology Working Group on Myocardial Function (Zacchigna S et al. 2021).
Animals were induced with isoflurane (5%) before being intubated and mechanically supported. Anesthesia plane was maintained using isoflurane (2-3%). A 2-French pressure-conductance catheter (Transonic Systems Inc., Ithaca, New York, USA) was calibrated using echo derived left ventricular volumes. The right common carotid artery was then dissected, and the catheter was advanced in a retrograde fashion into the left ventricle as previously described. Data were acquired using PowerLab and LabChart Pro (ADInstruments) and analyzed offline using LabChart Pro (ADInstruments).

[3] = tested on: Sprague Dawley rats; test: Myocardial tubulin detyrosination after IV injection, western blot; type: in vivo, rat; settings: single injection IV, 8 weeks old Sprague Dawley rats
Source text: B) Quantification of detyrosination levels (D1/alpha-tubulin ratio) in vehicle (n=4) and VASHi-treated rats (n=3).
For efficacy testing we presented SVC_01 to primary cardiomyocytes isolated from Sprague Dawley rats. […] Next, we performed functional studies by measuring key cardiomyocytes parameters including resting, fractional shortening, contraction time and relaxation time. […] The ZSF1 rat model is a hybrid rat obtained by a cross between a ZDF female and an SHHF male rat. This model is an established HFpEF rat model. Obese ZSF1 (O—ZSF1) hybrid rats are compound heterozygote with two different mutated alleles coding defective leptin receptor, resulting in loss of the receptor function. Thus, these animals have increased food intake and develop pronounced features of obesity, diabetes, and resultant HFpEF. […] We performed a western blot analysis from myocardial tissue prepared from Wistar Kyoto (WKY), ZSF1 lean and ZSF1 obese rats (FIG. 14). In line with previously published data of the role of microtubule densification and tubulin detyrosination, we found an increase in both total tubulin as well as detyrosinated tubulin in myocardial tissue of ZSF1-obese rats compared to the lean and WKY controls. […] Similar results were observed by assessment of the transverse stiffness. […]

Row | mitochondrial activity [1] | SMILES | E/A ratio ([2]; echocardiography) | mitral valve deceleration time ([2]; echocardiography) | dP/dTmin (rate of ventricular relaxation) ([2]; hemodynamics) | tau (left ventricular diastolic time constant) ([2]; hemodynamics) | detyrosinated tubulin in myocardial tissue [3]
1 | does not alter mitochondrial activity | O=C(O)CCC[C@H](NC(=O)[C@H]1O[C@@H]1C(=O)C[C@@H](Cc1ccc(OCc2ccccc2)cc1)C(=O)O)C(=O)NCCc1ccccc1 [SVC_01] |  |  |  |  | 
2 |  | CCOC(=O)[C@H](Cc1ccc(OCC)cc1)NC(=O)[C@H]1O[C@@H]1C(=O)N[C@@H](Cc1ccc(OCC)cc1)C(=O)OCC [SVC_02] | Improved | Improved | Improved | Improved | efficient reduction in detyrosinated tubulin
